Measurements published in patent US20240238237A1, “CONJUGATED LINOLEIC ACID SUPPLEMENTATION FOR DISEASE TREATMENT” (VIRGINIA TECH INTELLECTUAL PROPERTIES, INC., priority 2021, published 2024).
“Also recorded” adds a separate entry of the source.

Assays:
[1] = test system: liver of WT, PWS and PWS-KO mice; experiment: Liver histology (H&E); assay type: in vivo, mouse
Description: Tissues were isolated immediately following euthanasia by CO2 asphyxiation and placed into 4% paraformaldehyde, overnight, with rocking at 4° C. The tissues were then rinsed in 70% ethanol and stored in 70% ethanol at 4° C. until processing. The Virginia Tech Veterinary Teaching Hospital at the Virginia-Maryland College of Veterinary Medicine processed the tissues for histology and stained with hematoxylin-eosin stain for microscopy. Representative samples were visualized using a 40× ocular on a Nikon Eclipse 50i micro-scope and captured using an Olympus Q-color3 camera.

[2] = test system: WT, PWS (Snord116m+/p−) and PWS-KO (Snord116m−/p−) mice; experiment: Spontaneous wheel running; assay type: in vivo, mouse; conditions: post-study
Description: For the spontaneous/motivated wheel running analysis, mice were placed in wire-bottom cages equipped with computer-monitored running wheels (Mini-mitter, Sunriver, OR, USA) for a total of 4 days, and then returned to their home cages. The first two days were not recorded as these were considered acclimation days, and the last 48 h were used for data collection. Mice had ad lib access to food and water during this time. For the pre-week, regular mouse chow was provided. For the post-week measurements, mice were supplied with their study diet during testing.

[3] = test system: WT, PWS (Snord116m+/p−) and PWS-KO (Snord116m−/p−) mice; experiment: In vivo plantarflexor torque-frequency and fatigue assays; design: species or system mouse
Description: The procedures for in vivo muscle testing were recently published. Briefly, at the end of the study, following both running wheel and metabolism measurements, body weight was determined, and mice were anesthetized with isoflurane (VetOne Fluriso, Boise, ID, USA) and placed on the temperature-controlled platform (40° C.) of the contractile apparatus (ASI), as described. The right hindlimb was shaved, hair remover applied (Nair Hair Remover Lotion, Ewing, NJ, USA) for 30 s, cleaned with 2-inch×2-inch gauze and tap water, and swabbed with povidone-iodine (Betadine Solution Swabsticks, Stamford, CT, USA). The knee was clamped so the tibia was 90° to the femur. The foot at 90° to the tibia was secured with clear Transpore surgical tape ([…], St. Paul, MN, USA) to the foot pedal of the Aurora Scientific (ASI: Aurora, ON, Canada) dual-mode servomotor. The mouse tail was taped (M3, St. Paul, MN, USA) loosely to the platform to keep it clear of the foot pedal. In vivo plantarflexor torque-frequency and fatigue assays were determined as described in Hamm et al.. Dynamic Muscle Control (DMC) software controlled the timing and frequency of the stimulations and collection of torque. Peak torque for each muscle contraction was determined using ASI Dynamic Muscle Analysis (DMA) software. Due to the body mass and fat mass reduction of the CLA groups in this study, torque was normalized separately by body mass (g) and the final measure of lean body mass (g).
In vivo plantar-flexor torque-frequency and fatigue curves were analyzed using Graph-Pad Prism 9.2.0. A two-way ANOVA was performed with multiple comparisons across groups. For torque-frequency figures, a nonlinear model was fit using the sigmoidal curve with variable slope.

[4] = test system: WT, PWS (Snord116m+/p−) and PWS-KO (Snord116m−/p−) mice; experiment: Fasting glucose and glucose tolerance test; assay type: in vivo, mouse; conditions: all genotypes, after 12 weeks diet, vs control diet
Description: Mice were food-deprived for 12-15 h during the dark cycle in a cage devoid of bedding material. For the fasting measurement, the tail was snipped (1-2 mm), and blood was collected directly on Care Touch glucose test strips and directly measured using a Care Touch blood glucose monitor (Future Diagnostics USA, Brooklyn, NY, USA). Glucose (pharmaceutical grade dextrose, 2 g/kg in PBS, sterile) was injected intraperitoneally (IP) and tail blood samples were obtained at 15, 30, 60, 90, and 120 min following the injection. Area under the curve was calculated using the formula (((([fasting glucose×7.5]+[15 min glucose×15)+[30 min glucose×22.5])+[60 min glucose×30])+[90 min glucose×30])+[120 min glucose×15]).

[5] = test system: N2KO (Nhlh2 deletion) and WT mice; experiment: Body weight, body fat and lean mass in N2KO mice, Example 3; assay type: in vivo, mouse
Description: In males, incidence of HH is as high as one in 4000, with incidence in females being about 2-5 times lower. It was previously shown that mice containing a mutation of Nhlh2, a neuronal basic-helix-loop-helix transcription factor show a failure of pubertal onset, adult-onset obesity and hypogonadism. These mice are termed N2KO mice. […] In this Example, N2KO and WT mice were treated with about 0.5% CLA for 12 weeks.

[6] = test system: C57Bl/6 WT and PWS mice; 129v/J WT and Nhlh2 KO mice; experiment: Elevated plus maze anxiety symptoms, Example 2; assay type: in vivo, mouse
Description: Mice were tested, using a pre-post design and an elevated plus maze for anxiety symptoms FIG. 16A. Mice that are anxious generally will spend less time in the open arms, compared to those without anxiety. PWS patients show a number of neurobehavioural traits with the most commonly diagnosed phenotype being anxiety. In this study mice were placed in the middle of a plus-type maze, and entrance, as well as time spent in open or closed arms over a 5 minute period were tested. Mice were tested only once before entering the 12-week feeding stud, and once at the end of the 12-week feeding study. The percent time is reported. The data shown in FIG. 16B-16C show a comparison between pre-week test results, and the two treatment groups for each genotype in the post-week test. As shown in FIGS. 16B and 16C, the percent time in open arms was less for all animals. […] These findings can be translated to treatment of humans with anxiety.

[7] = test system: N2KO mice; conditions: 20% fat diet, refs [13-16]; cited from earlier work
[8] = test system: C57Bl/6 WT, PWS, PWS-KO mice and 129v/J mice with a deletion of Nhlh2; experiment: Rotarod balance and forward locomotion, Example 2; assay type: in vivo, mouse; conditions: end of 12 week study, regardless of genotype
Description: At the end of the 12 week study, mice were acclimated to using a rotarod apparatus (FIG. 15A), for one day with grip tape on the rod, and two days without grip tape, at an acceleration of 2.65%, starting from 0) rpm to a maximum speed of 20 rpm. The average of four trials, spaced at least 5 minutes apart on day 4 of testing were the basis for the experimental result.

Substance: conjugated linoleic acid [CLA]
- Mice with liver steatosis on CLA diet, PWS and PWS-KO ([1]; PWS and PWS-KO): ~50%
- Liver steatosis, PWS-KO mice on CLA diet ([1]; PWS-KO): four of seven
- Liver steatosis, PWS mice on CLA diet ([1]; PWS, two of these mild): five of eight
- Liver steatosis, WT mice on CLA diet ([1]; WT): all liver sections
- Mice with liver steatosis on CLA diet, WT ([1]; WT): 100%
- 24 h spontaneous wheel running [2]: non-significant
- Resistance to fatigue ([3]; PWS CLA and PWS-KO CLA vs control diet counterparts): lowered
- Plantarflexor torque output, PWS group ([3]; PWS, normalized to lean body mass): lowered torque output
- Fatigue ([3]; WT and PWS mice on CLA diet vs most other genotypes and treatments): greater fatigue
- Plantarflexor torque output, WT mice ([3]; WT, regardless of normalization method): increased torque output
- Muscle function, overall ([3]; any group, vs WT baseline): not detrimental to muscle function
- Fasting glucose [4]: significantly higher; also recorded: significantly increased fasting glucose
- Lean mass, N2KO study ([5]; 12 weeks CLA): significantly improved
- Body fat, N2KO mice ([5]; about 0.5% CLA for 12 weeks): reduced; also recorded: decreased body fat; also recorded: significant reduction
- Body weight, N2KO mice ([5]; about 0.5% CLA for 12 weeks): reduced body weight; also recorded: improved body weight; also recorded: significant reduction
- Percent time in open arms, 129v/J WT and Nhlh2 KO mice ([6]; 12 weeks CLA vs control diet): highly significant improvement
- Percent time in open arms, PWS mice ([6]; C57Bl/6 PWS mice, post-week): numeric improvement
- Outcomes of CLA treatment of N2KO mice [7]: weight loss, decreased body fat, increased metabolism, muscle mitochondrial biogenesis, and increased exercise performance
- Rotarod balance and forward locomotion [8]: balance and forward locomotion improvement
